Measurements: ChEMBL document CHEMBL5715954, “Silencing c-Myc translation as a therapeutic strategy through targeting PI3Kδ and CK1ε in hematological malignancies” (Blood, 2017)

Columns and labels:
Set-up in all cases: scale not given: the % may be the effect or the level left
[1] = target: CDK2/Cyclin O (Homo sapiens) (UniProt P24941+P22674); assay: Inhibition of human CDK2/cyclin O assessed as enzyme activity at 1 uM using Histone H1 as substrate preincubated for 20 mins followed by [gamma-33P]-ATP addition and measured after 120 mins by radiometric Hot-SpotSM Kinase assay relative to control; type: protein-complex assay
[2] = target: T1, Interleukin-1 receptor-associated kinase 4 (Homo sapiens) (UniProt Q9NWZ3); assay: Inhibition of human IRAK4 assessed as enzyme activity at 1 uM using myelin basic protein as substrate preincubated for 20 mins followed by [gamma-33P]-ATP addition and measured after 120 mins by radiometric Hot-SpotSM Kinase assay relative to control
T1 sequence (whole entry): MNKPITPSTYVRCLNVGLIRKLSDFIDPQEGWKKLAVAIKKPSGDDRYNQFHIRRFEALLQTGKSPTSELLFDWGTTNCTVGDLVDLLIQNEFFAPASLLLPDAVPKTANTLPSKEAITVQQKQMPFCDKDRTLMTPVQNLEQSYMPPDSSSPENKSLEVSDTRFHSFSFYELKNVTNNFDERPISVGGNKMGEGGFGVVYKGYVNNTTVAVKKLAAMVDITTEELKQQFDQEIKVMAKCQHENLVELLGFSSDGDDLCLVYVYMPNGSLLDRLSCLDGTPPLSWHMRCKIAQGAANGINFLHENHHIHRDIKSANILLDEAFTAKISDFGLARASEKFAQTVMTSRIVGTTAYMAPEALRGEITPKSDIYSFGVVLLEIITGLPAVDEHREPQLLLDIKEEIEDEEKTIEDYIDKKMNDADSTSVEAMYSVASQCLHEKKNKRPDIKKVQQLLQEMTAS

[3] = target: Platelet-derived growth factor receptor alpha (Homo sapiens) (UniProt P16234); assay: Inhibition of human PDGFRa assessed as enzyme activity at 1 uM using poly[Glu:Tyr] (4:1) as substrate preincubated for 20 mins followed by [gamma-33P]-ATP addition and measured after 120 mins by radiometric Hot-SpotSM Kinase assay relative to control
Chain of Platelet-derived growth factor receptor alpha (Homo sapiens) (P16234 whole entry): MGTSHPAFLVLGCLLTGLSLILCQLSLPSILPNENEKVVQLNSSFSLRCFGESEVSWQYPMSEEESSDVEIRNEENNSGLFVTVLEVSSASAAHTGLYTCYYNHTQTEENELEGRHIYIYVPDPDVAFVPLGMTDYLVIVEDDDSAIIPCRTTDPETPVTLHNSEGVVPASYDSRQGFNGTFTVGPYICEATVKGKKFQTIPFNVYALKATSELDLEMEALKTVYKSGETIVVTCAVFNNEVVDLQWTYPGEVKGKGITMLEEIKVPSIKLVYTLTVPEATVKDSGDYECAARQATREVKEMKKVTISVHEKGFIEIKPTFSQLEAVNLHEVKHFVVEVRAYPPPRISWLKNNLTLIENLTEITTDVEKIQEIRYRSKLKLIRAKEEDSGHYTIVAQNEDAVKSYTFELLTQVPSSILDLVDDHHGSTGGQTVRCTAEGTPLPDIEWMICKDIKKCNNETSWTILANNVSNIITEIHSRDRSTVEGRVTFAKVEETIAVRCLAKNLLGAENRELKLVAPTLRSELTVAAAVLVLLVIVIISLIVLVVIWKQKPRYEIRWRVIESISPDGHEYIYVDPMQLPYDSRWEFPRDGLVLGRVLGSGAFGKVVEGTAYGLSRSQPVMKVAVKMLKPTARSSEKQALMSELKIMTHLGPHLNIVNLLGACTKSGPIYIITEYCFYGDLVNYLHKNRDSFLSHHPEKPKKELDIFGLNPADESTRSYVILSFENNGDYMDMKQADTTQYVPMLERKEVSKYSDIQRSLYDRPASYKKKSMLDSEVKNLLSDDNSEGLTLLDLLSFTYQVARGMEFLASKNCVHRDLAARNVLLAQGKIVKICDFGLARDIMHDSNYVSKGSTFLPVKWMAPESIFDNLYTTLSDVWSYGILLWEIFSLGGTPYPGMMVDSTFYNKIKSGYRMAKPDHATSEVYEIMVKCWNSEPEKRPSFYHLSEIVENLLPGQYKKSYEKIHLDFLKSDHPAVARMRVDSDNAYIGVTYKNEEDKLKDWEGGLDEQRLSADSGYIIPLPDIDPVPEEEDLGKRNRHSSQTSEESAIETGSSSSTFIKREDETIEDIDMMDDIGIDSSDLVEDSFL

[4] = target: Wee1-like protein kinase (Homo sapiens) (UniProt P30291); assay: Inhibition of human WEE1 assessed as enzyme activity at 1 uM using CDK1 (D146N)/cyclin B1 as substrate preincubated for 20 mins followed by [gamma-33P]-ATP addition and measured after 120 mins by radiometric Hot-SpotSM Kinase assay relative to control
Chain of Wee1-like protein kinase (Homo sapiens) (P30291 whole entry, looked up): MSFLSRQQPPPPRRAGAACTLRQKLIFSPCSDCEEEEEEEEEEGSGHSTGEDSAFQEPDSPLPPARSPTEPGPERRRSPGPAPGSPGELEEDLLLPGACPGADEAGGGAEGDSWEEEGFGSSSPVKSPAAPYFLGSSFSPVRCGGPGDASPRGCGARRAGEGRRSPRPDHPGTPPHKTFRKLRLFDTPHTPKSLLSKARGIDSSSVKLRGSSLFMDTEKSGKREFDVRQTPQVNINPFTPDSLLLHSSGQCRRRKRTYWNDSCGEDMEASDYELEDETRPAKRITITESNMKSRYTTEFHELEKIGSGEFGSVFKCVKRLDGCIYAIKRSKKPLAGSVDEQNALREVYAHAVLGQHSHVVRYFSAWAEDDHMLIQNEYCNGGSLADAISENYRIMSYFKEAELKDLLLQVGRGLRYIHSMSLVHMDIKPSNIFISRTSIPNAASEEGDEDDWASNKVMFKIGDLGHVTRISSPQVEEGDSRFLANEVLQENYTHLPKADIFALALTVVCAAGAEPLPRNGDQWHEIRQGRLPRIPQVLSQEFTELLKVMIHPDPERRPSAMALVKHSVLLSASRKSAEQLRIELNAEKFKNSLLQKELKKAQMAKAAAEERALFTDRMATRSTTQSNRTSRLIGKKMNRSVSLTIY

[5] = target: Serine/threonine-protein kinase WNK2 (Homo sapiens) (UniProt Q9Y3S1); assay: Inhibition of human WNK2 assessed as enzyme activity at 1 uM using myelin basic protein as substrate preincubated for 20 mins followed by [gamma-33P]-ATP addition and measured after 120 mins by radiometric Hot-SpotSM Kinase assay relative to control
Chain of Serine/threonine-protein kinase WNK2 (Homo sapiens) (Q9Y3S1 whole entry): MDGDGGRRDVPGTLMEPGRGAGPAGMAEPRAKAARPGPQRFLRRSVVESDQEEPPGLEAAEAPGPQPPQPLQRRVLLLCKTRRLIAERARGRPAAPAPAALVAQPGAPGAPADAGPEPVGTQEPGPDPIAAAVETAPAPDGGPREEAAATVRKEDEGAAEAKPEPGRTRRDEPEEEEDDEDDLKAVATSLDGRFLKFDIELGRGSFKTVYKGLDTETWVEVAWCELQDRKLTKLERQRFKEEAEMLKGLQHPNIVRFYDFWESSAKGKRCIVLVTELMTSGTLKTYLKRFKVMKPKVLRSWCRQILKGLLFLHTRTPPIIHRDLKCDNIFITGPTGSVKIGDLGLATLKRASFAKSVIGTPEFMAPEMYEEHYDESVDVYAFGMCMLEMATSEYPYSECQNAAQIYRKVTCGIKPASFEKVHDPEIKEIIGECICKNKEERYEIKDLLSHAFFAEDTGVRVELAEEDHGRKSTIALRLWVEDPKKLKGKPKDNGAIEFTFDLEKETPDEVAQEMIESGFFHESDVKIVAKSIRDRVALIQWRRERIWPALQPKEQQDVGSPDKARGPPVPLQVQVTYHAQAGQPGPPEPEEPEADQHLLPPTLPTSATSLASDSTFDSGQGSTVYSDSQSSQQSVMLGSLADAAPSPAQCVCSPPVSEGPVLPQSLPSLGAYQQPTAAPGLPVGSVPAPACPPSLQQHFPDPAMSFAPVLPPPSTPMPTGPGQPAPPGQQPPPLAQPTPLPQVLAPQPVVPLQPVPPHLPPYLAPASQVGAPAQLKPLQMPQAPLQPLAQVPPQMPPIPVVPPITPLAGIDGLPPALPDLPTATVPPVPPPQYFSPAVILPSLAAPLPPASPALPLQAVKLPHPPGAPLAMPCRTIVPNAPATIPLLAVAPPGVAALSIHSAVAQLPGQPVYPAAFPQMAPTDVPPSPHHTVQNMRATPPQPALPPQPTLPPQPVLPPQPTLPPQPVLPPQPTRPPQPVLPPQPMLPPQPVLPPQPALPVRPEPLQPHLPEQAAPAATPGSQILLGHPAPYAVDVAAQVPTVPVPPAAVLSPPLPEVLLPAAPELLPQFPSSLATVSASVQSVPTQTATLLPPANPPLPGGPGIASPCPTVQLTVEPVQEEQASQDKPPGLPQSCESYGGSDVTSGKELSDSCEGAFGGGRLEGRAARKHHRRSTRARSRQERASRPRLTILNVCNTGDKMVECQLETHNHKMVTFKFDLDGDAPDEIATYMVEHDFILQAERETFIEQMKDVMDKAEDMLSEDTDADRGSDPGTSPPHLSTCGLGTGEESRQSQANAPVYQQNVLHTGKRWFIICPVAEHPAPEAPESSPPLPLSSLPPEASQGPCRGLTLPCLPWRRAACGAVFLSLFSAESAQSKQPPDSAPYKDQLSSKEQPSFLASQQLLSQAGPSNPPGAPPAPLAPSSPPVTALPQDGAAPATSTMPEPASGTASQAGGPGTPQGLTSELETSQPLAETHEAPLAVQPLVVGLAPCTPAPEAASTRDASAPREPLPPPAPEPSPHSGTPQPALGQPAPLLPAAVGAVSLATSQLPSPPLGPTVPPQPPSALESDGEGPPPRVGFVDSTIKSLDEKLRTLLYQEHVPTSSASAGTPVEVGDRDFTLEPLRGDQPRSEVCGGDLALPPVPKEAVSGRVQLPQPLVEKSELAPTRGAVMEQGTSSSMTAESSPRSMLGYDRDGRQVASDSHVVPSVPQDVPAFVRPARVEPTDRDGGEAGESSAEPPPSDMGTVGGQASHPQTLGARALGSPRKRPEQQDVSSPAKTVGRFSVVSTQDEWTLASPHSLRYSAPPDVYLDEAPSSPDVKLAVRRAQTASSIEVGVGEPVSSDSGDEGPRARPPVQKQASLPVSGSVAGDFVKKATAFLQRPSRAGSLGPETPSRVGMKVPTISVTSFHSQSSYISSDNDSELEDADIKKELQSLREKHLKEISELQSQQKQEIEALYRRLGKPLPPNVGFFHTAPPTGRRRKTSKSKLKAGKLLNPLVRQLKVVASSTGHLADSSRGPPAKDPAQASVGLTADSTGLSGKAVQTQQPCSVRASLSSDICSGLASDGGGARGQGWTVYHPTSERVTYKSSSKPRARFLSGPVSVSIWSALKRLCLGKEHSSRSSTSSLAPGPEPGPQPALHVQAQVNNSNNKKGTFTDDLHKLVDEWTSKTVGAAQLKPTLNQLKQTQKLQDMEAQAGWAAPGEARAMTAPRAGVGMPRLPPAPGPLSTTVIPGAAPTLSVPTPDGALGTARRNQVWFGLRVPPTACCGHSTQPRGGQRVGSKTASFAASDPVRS

[6] = target: Calcium/calmodulin-dependent protein kinase kinase 1 (Homo sapiens) (UniProt Q8N5S9); assay: Inhibition of human CAMKK1 assessed as enzyme activity at 1 uM using myelin basic protein as substrate preincubated for 20 mins followed by [gamma-33P]-ATP addition and measured after 120 mins by radiometric Hot-SpotSM Kinase assay relative to control
[7] = target: Mitogen-activated protein kinase kinase kinase 11 (Homo sapiens) (UniProt Q16584); assay: Inhibition of human MLK3 assessed as enzyme activity at 1 uM using myelin basic protein as substrate preincubated for 20 mins followed by [gamma-33P]-ATP addition and measured after 120 mins by radiometric Hot-SpotSM Kinase assay relative to control
[8] = target: T2, Serine/threonine-protein kinase LATS1 (Homo sapiens) (UniProt O95835); assay: Inhibition of human LATS1 assessed as enzyme activity at 1 uM using KKRNRRLSVA as substrate preincubated for 20 mins followed by [gamma-33P]-ATP addition and measured after 120 mins by radiometric Hot-SpotSM Kinase assay relative to control
T2 sequence (whole entry): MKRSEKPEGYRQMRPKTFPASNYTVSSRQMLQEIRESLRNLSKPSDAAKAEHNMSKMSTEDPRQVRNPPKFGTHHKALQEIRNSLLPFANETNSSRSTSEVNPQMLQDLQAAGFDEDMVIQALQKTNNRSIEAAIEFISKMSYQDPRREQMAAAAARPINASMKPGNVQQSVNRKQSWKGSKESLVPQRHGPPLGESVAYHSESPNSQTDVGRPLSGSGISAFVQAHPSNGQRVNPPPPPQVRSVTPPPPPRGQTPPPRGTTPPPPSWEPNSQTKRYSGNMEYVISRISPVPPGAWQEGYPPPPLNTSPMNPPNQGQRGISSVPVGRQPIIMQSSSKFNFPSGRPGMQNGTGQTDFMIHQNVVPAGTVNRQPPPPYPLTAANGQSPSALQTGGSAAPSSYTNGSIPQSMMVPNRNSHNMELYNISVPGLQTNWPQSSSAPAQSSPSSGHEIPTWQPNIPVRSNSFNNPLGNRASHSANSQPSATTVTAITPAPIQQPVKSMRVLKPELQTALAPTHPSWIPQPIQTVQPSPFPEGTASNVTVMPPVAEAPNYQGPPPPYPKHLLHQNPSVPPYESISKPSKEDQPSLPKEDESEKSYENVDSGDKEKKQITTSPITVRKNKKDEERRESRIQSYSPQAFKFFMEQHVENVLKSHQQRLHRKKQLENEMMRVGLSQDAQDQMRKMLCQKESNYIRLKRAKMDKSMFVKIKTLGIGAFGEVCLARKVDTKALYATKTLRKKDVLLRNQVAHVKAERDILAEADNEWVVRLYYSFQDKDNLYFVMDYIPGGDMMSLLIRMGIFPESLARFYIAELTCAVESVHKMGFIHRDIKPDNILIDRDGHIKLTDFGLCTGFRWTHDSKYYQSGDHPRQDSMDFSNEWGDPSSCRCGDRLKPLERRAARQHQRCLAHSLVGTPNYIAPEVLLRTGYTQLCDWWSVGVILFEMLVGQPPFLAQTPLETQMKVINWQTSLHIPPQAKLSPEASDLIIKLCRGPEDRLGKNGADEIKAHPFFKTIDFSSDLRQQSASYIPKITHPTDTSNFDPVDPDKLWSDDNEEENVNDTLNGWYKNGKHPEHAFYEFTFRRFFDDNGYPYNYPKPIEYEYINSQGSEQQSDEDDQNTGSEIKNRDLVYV

[9] = target: Tyrosine-protein kinase Fes/Fps (Homo sapiens) (UniProt P07332); assay: Inhibition of human FES/FPS assessed as enzyme activity at 1 uM using poly[Glu:Tyr] (4:1) as substrate preincubated for 20 mins followed by [gamma-33P]-ATP addition and measured after 120 mins by radiometric Hot-SpotSM Kinase assay relative to control
[10] = target: CDK3/Cyclin E (Homo sapiens) (UniProt P24864+Q00526); assay: Inhibition of human CDK3/cyclin E assessed as enzyme activity at 1 uM using RB Protein as substrate preincubated for 20 mins followed by [gamma-33P]-ATP addition and measured after 120 mins by radiometric Hot-SpotSM Kinase assay relative to control; type: protein-complex assay
Chain of CDK3/Cyclin E (Homo sapiens) (P24864 whole entry, looked up): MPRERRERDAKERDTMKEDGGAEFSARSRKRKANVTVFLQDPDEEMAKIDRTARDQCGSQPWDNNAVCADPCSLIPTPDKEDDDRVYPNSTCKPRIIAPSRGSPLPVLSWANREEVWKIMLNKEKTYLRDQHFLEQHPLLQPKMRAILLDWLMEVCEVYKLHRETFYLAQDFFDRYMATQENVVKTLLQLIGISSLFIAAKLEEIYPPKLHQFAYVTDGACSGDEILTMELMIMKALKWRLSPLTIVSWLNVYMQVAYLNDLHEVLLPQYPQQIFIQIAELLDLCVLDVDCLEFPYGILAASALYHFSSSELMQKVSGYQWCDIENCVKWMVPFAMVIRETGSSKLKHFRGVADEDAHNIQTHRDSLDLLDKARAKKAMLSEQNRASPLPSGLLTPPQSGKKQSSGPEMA
Chain of CDK3/Cyclin E (Homo sapiens) (Q00526 whole entry, looked up): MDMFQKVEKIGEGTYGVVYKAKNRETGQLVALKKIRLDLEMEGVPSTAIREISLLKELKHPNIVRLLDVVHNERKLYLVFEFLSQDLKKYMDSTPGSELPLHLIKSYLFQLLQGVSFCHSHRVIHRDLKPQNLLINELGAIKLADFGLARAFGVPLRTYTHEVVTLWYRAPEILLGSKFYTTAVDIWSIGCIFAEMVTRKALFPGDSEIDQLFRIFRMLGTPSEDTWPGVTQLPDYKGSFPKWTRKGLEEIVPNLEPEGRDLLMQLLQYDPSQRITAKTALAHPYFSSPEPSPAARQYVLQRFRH

| Compound | Activity [1] [%] | Activity [2] [%] | Activity [3] [%] | Activity [4] [%] | Activity [5] [%] | Activity [6] [%] | Activity [7] [%] | Activity [8] [%] | Activity [9] [%] | Activity [10] [%] |
| --- | --- | --- | --- | --- | --- | --- | --- | --- | --- | --- |
| C[C@H](Nc1ncnc2nc[nH]c12)c1cc2cccc(Cl)c2c(=O)n1-c1ccccc1 | 90.7 | 91 | 90.1 | 87.3 | 90.5 | 98.1 | 75.1 | 99.8 | 95.6 | 88 |
| CC[C@H](Nc1ncnc2[nH]cnc12)c1nc2cccc(F)c2c(=O)n1-c1ccccc1 | 92.8 | 96.3 | 93.8 | 96.7 | 92.3 | 105 | 79.8 | 95.4 | 91.5 | 86.8 |
| CC(C)Oc1ccc(-c2nn([C@@H](C)c3oc4ccc(F)cc4c(=O)c3-c3cccc(F)c3)c3ncnc(N)c23)cc1F [UMBRALISIB] | 92.9 | 101 | 100 | 106 | 82.2 | 102 | 80.9 | 96.3 | 97.5 | 84.3 |
